Reference: US8759308B2, “RNAi probes targeting cancer-related proteins” (The University of British Columbia, priority 2002, dated 2014)
d = 2'-deoxy (DNA); r = 2'-OH (RNA)

Columns and labels:
IGFBP-5 transcript [1] = test: IGFBP-5 transcript by RT-PCR in primary human bone fibroblasts; format: cell-based; settings: 50 nM
Description: Primary human bone fibroblasts were transfected with 50 nM of the 3 species of bispecific siRNA (BS-1, BS-2 and BS-3) or scrambled control. A vehicle only and an untreated control were was also evaluated. Total RNA was extracted and analyzed by RT-PCR for IGFBP-5 transcript.

IGFBP-5 transcript [2] = test: IGFBP-5 transcript by RT-PCR in PC3 cells; format: cell-based, human; settings: 10, 50 and 100 nM
Description: PC3 cells were transfected with various doses (10, 50 and 100 nM) of the 3 species of bispecies siRNA (BS-1, BS-2 and BS-3) or scrambled control. A vehicle only control was also evaluated. Total. RNA was extracted and analyzed by RT-PCR for IGFBP-5 transcript.

clusterin transcript [3] = test: Clusterin transcript by Real Time PCR in PC3 cells; format: cell-based, human; settings: 10, 50 or 100 nM, two days
Description: (§1) PC3 cells were transfected with siRNA at levels of 10, 50 or 100 nM or with 100 nM scrambled control. Two days after transfection, total RNA was extracted and the level of clusterin transcript was quantified by Real Time PCR.

clusterin transcript [4] = test: Clusterin transcript by Real Time PCR in A549 cells; format: cell-based, human; settings: 10, 50 or 100 nM, two days
Description: as §1
The experiment of Example 9 was repeated using A549 cells in place of PC3 cells.

clusterin transcript [5] = test: Clusterin transcript by Northern blot in PC3 cells; format: cell-based, human; settings: all doses (10, 50 or 100 nM), two days
Description: PC3 cells were treated (1 pulse) with CLU-3 (Seq ID NOs. 5 and 6) or CLU-5 (Seq ID Nos 9 and 10) or with a scrambled control at levels of 10, 50 or 100 nM, or with oligoFECTAMINE™ only. After two days total RNA was extracted and analyzed for clusterin and GADPH by Northern blotting. Densitometric measurement was performed. FIG. 10 presents results of these measurements after normalization to GADPH.

PC3 cells = test: PC3 cell viability with siRNA and Taxol, MTT assay; format: cell-based, human; settings: 25 nM siRNA, then Taxol three days
Description: PC3 cells were treated once with 25 nM human clusterin siRNAs (CLU-3 and CLU-5), a scrambled control, or oligoFECTAMINE™ only. After two days of treatment, the medium was replaced with medium containing various concentrations of Taxol (Paclitaxel). After three days of incubation, cell viability was determined by MTT assay. FIG. 11 summarizes the results.

[6] = system: 49 kDa c-CLU protein form; test: Expression of c-CLU protein form after siRNA; format: cell-based, human; settings: KH OS and U-2 OS cells
Description: (§2) OS cells sensitization to genotoxic and oxidative stress due to CLU gene silencing is related to activation of the cellular apoptotic machinery. […] We assume that the explanation of this effect relies on our observation that the n-CLU protein is extremely stable.

CLU protein = test: CLU gene silencing by siRNA in OS cells (immunoblotting); format: cell-based, human; settings: for CLU protein accumulation following exposure to DXR: KH OS and U-2 OS cells, DXR for 24 h in presence of siRNA; for knock-down of secreted CLU (s-CLU) protein form: OS cells; for cellular CLU protein levels / CLU gene silencing: three OS cell lines, 100 nM siRNA duplex, 2-3 days
Description: The human clusterin cDNA was manually scanned in order to identify sequences of the AA(N19)UU (N, any nucleotide) type that fulfill the required criteria for siRNA (Harbourth et al., J Cell Sci 114: 4557-4560 (2001)). Two such sequences with symmetric 2-nt 3′ overhangs, were found 433 (Cl-I) and 644 (Cl-II) nts downstream of the CLU gene transcription initiation codon. Two additional oligonucleotides used targeted a region 1620 nts downstream of the CLU gene transcription initiation codon (Cl-III) and the human CLU transcription initiation site (Cl-V) (see Table). […] Selected RNA oligos were synthesized by Dharmacon Research, Inc. (Lafayette, Colo.), diluted at a 20 μM final concentration in RNasefree ddH2O and stored at −20° C. The Scramble-I™ (Sc-I) (D-1200-20) and Scramble-II™ (Sc-II) (D-1205-20) oligonucleotides used were purchased from Dharmacon Research, Inc.
siRNA transfection of the Cl-I, Cl-II and scrambled RNA duplexes in exponentiary growing OS cells was performed as described (Harbourth et al., Tuschl et al., Genes Dev. 13: 3191-3197 (1999)). Briefly, cells were seeded the day before siRNA transfection in 24-well plates containing 500 μl complete medium and were ˜40-50% confluent during transfection. For the transfection mixture 100 nM of siRNA duplex per well were used. The RNA duplex was diluted in Opti-MEM® I (Gibco Life Technologies, Inc., San Diego, Calif.) serum free medium and transfection efficiency was enhanced by using the Oligofectamine™ reagent (Invitrogen Life technologies Inc., San Diego, Calif.). When cells were treated with both Cl-i and Cl-II oligonucleotides, 100 nM of each siRNA duplex were used. Cell treatment with the siRNA oligonucleotides lasted for 2-3 days.
(§3) Alternatively, in PC3 cells Lipofectin™ (Invitrogen Life technologies Inc., San Diego, Calif.) was used to enhance transfection with the Cl-III and CL-V oligonucleotides. PC3 cells were treated with 10, 50, or 100 nM of the RNA duplexes after pre-incubation with 4 μg/ml of […] reagent in serum free OptiMEM® I for 20 minutes. Four hours after starting the incubation, the medium containing the RNA duplexes and Lipofectin was replaced with standard tissue culture medium. Cells were treated once on day 1 and then harvested 48 h after treatment on day 3. In all cases controls used included: (a) the usage of the Sc-I and Sc-II RNA duplexes and (b) mock transfections in the absence of a nucleic acid (Con-I). CLU gene silencing was assayed by RNA blot analysis, immunoblotting analysis or confocal immunofluorescence.
Efficient silencing of the CLU gene expression in OS cells is achieved using siRNA.

[7] = system: 55 kDa n-CLU protein form; test: Expression of n-CLU protein form after siRNA; format: cell-based, human; settings: KH OS and U-2 OS cells
Description: as §2

CLU mRNA and protein = test: CLU gene silencing by siRNA in PC3 cells (RNA blot, immunoblot); format: cell-based, human; settings: sequence-dependent but dose-independent
Description: as §3
Effects of CLU gene silencing in PC-3 prostate cancer cells were determined. Having established the significant effects of CLU knock down in OS cells, we then applied CLU siRNA in PC3 human prostate cancer cells. PC3 cells are p53 null (Rohlff, et al., Prostate 37: 51-59 (1998)) and express relatively low endogenous amount of the s-CLU protein form similar to the Sa OS cells. In PC3 cells, apart from employing the Cl-I and Cl-II oligonucleotides, we also tested two additional CLU-specific siRNA oligonucleotides (Cl-III, Cl-V). […]

BS-1: IGFBP-2 and -5 bispecific siRNA, double-stranded RNA from Seq. ID NOs. 39 and 40 (chain 1 GGAGCCGGGCUGCGGCUGCTT; chain 2 GCAGCCGCAGCCCGGCUCCTT; sugars from the 5' end r19 d2, backbone not given here)
amount of IGFBP-5 transcript (IGFBP-5 transcript [1]): reduction in the amount of IGFBP-5 transcript
amount of IGFBP-5 transcript (IGFBP-5 transcript [2]): reduction in the amount of IGFBP-5 transcript

BS-2: IGFBP-2 and -5 bispecific siRNA, double-stranded RNA from Seq. ID NOs. 41 and 42 (chain 1 CGUGCGGCGUCUACACCTT; chain 2 GGUGUAGACGCCGCACGTT; sugars from the 5' end r17 d2, backbone not given here)
amount of IGFBP-5 transcript (IGFBP-5 transcript [1]): reduction in the amount of IGFBP-5 transcript
amount of IGFBP-5 transcript (IGFBP-5 transcript [2]): reduction in the amount of IGFBP-5 transcript

BS-3: IGFBP-2 and -5 bispecific siRNA, double-stranded RNA from Seq. ID NOs. 43 and 44 (chain 1 CCAGGGGCUGCGCUGCTT; chain 2 GCAGCGCAGCCCCUGGTT; sugars from the 5' end r16 d2, backbone not given here)
amount of IGFBP-5 transcript (IGFBP-5 transcript [1]): reduction in the amount of IGFBP-5 transcript
amount of IGFBP-5 transcript (IGFBP-5 transcript [2]): reduction in the amount of IGFBP-5 transcript

CLU1: clusterin siRNA, double-stranded RNA from Seq. ID NOs. 1 and 2 (chain 1 CCAGAGCUCGCCCUUCUACTT; chain 2 GUAGAAGGGCGAGCUCUGGTT; sugars from the 5' end r19 d2, backbone not given here)
amount of clusterin transcript (clusterin transcript [3]): reduction in the amount of clusterin transcript
amount of clusterin transcript (clusterin transcript [4]): reduction in the amount of clusterin transcript

CLU3: clusterin siRNA, double-stranded RNA from Seq. ID NOs. 5 and 6 (chain 1 CUAAUUCAAUAAAACUGUCTT; chain 2 GACAGUUUUAUUGAAUUAGTT; sugars from the 5' end r19 d2, backbone not given here)
amount of clusterin transcript (clusterin transcript [3]): reduction in the amount of clusterin transcript
amount of clusterin transcript (clusterin transcript [4]): reduction in the amount of clusterin transcript
amount of clusterin transcript normalized to GADPH (clusterin transcript [5]): Reduction in the amount of clusterin transcript
viable cells with siRNA plus Taxol (PC3 cells): worked in synergy

Cl-I: clusterin siRNA duplex, SEQ. ID No: 58 and 59; target 433 nts downstream of CLU transcription initiation codon (chain 1 CCAGAGCUCGCCCUUCUACTT; chain 2 GUAGAAGGGCGAGCUCUGGTT; sugars from the 5' end r19 d2, backbone not given here)
effect on 49 kDa c-CLU protein form level [6]: minor effect
CLU protein accumulation following exposure to DXR (CLU protein): effectively abolished
effectiveness in silencing the CLU gene, Cl-I compared with Cl-II (CLU protein; OS cell lines): slightly more effective than Cl-II
knock-down of secreted CLU (s-CLU) protein form (CLU protein): specifically knock-down
cellular CLU protein levels / CLU gene silencing (CLU protein): knocking down significantly
effect on putative 55 kDa n-CLU protein form [7]: did not exert any significant effect

Cl-II: clusterin siRNA duplex, SEQ. ID No: 61 and 62; target 644 nts downstream of CLU transcription initiation codon (chain 1 GUCCCGCAUCGUCCGCAGCTT; chain 2 GCUGCGGACGAUGCGGGACTT; sugars from the 5' end r19 d2, backbone not given here)
effect on 49 kDa c-CLU protein form level [6]: minor effect
CLU protein accumulation following exposure to DXR (CLU protein): effectively abolished
knock-down of secreted CLU (s-CLU) protein form (CLU protein): specifically knock-down
cellular CLU protein levels / CLU gene silencing (CLU protein): knocking down significantly
effect on putative 55 kDa n-CLU protein form [7]: did not exert any significant effect

Cl-III: clusterin siRNA duplex, SEQ. ID No: 64 and 65; targets region 1620 nts downstream of initiation codon (chain 1 CUAAUUCAAUAAAACUGUCTT; chain 2 GACAGUUUUAUUGAAUUAGTT; sugars from the 5' end r19 d2, backbone not given here)
silencing CLU RNA and protein expression (CLU mRNA and protein): quite effective

Cl-V: clusterin siRNA duplex targeting the human CLU transcription initiation site; Table 7 Cl-IV, SEQ. ID No: 67 and 68 (chain 1 AUGAUGAAGACUCUGCUGC; chain 2 GCAGCAGAGUCUUCAUCAU; RNA, backbone not given here) [clusterin siRNA duplex targeting the human CLU transcription initiation site; ID No: 67 and 68]
silencing CLU RNA and protein expression (CLU mRNA and protein): quite effective
